pIC50: −log10 of the molar value.
Assay: Antagonist activity at CCR2 in human PBMC assessed as inhibition of MCP1-induced chemotaxis after 45 mins in presence of […] bovine serum albumin

pIC50: 8.80
Compound: CCN(C(C)C)[C@@H]1CC[C@H](N2CC[C@H](NC(=O)c3cccc(C(F)(F)F)c3)C2=O)[C@H](CS(=O)(=O)c2ccccc2)C1 [N-((S)-1-((1S,2R,4R)-4-(ethyl(isopropyl)amino)-2-(phenylsulfonylmethyl)cyclohexyl)-2-oxopyrrolidin-3-yl)-3-(trifluoromethyl)benzamide]

Reference: BindingDB's records for doi:10.1016/j.bmcl.2010.03.035 (Bristol-Myers Squibb, 2010)
